Data on five molecules can be found in patent publication US20110294728A1, “Antiviral Polypeptides” (priority 2008, published 2011).

What is called Ki is a measure of affinity in units of concentration, obtained from inhibition or displacement. Low values mean higher affinity, high ones lower affinity. A word on the EC50: it is the concentration at which the effect is half-maximal. A word on the Kd: it is the constant that tells how readily two partners part at equilibrium.

Read-outs that look alike come from different tables or passages of the source. Where a SMILES comes first, the peptide text is derived from it. Bridges are numbered along the chain shown (N, C = ends). Where no end group is shown, it is not given here.

One experiment concerns wild type HIV 1 virus. The experiment can be described thus: HIV propagation in Hu-PBL-SCID mice, wild type virus. It is filed as in vivo, Hu-PBL-SCID transgenic mice. Conditions: 20 mg/kg; peptides formulated with CADY-2c/CADY-1S1; HIV-1 DNA copies in splenocyte extracts. How it is done: (§1) The potency of the peptides p27 (SEQ ID NO: 25) and p16 (SEQ ID NO: 19) was assessed in vivo following intravenous challenge of Hu-PBL-SCID transgenic mice (in which human (hu) peripheral blood leukocytes (PBLs) from healthy Epstein-Barr virus (EBV)-seropositive donors are injected into severe combined immunodeficiency (SCID) mice; Mosier et al., 1988). The mice (6 to 8 week-old male mice, 5 animals per group) were infected with wild type HIV 1 virus or efavirenz-resistance HIV strain harbouring K103N and N341V mutations on reverse transcriptase. Infected mice were treated with peptides formulated with the peptide vector CADY-2c (see above) in water at a ratio 1/20, and then particles were coated with 3% of CADY-1S1 (see above), as described in International Application WO 2007/069090. Particles were injected intravenously (100 μl) every 2 days for 1 week, then HIV-1 copy were quantified by quantitative PCR. Efavirenz (a non-nucleoside reverse transcriptase inhibitor; EFZ) was used a positive drug control.

Experiment [1] has as its system efavirenz-resistance HIV strain harbouring K103N and N341V mutations on reverse transcriptase. It is filed as in vivo, Hu-PBL-SCID transgenic mice. The conditions noted are these: EFZ resistance strain; 20 mg/kg/day; peptides formulated with CADY-2c/CADY-1S1. As to the method: as §1
The target of experiment [2] is T1, HIV-1 integrase (Human immunodeficiency virus type 1 group M subtype B, UniProt P04585).
T1 construct: Integrase is a 32 kDA viral protein that is biologically active under a multimeric form
The experiment can be described thus: biochemical. How it is done:
(§2) The simultaneous measurement of integrase-DNA interaction and subsequent 3′-processing activity by steady-state fluorescence anisotropy was performed as described in Guiot et al. (2006). […] After the initial DNA-binding step (performed at 25° C.), the 3′-processing activity was measured at 37° C. by fixed-time experiments: The reaction was stopped at varying times by adding SDS (0.25% final) which disrupts all IN-DNA complexes in the sample. The IN-mediated cleavage of the terminal GT dinucleotide (labeled by fluorescein on the 3′-end) leads to a significant decrease of r as compared to the r value corresponding to the fluorescein-labeled unprocessed DNA substrate. The fraction of released dinucleotide is calculated by using Eq. (1): […]

A further experiment has as its target T2, HIV-1 RT (Human immunodeficiency virus type 1 group M subtype B, UniProt P03366).
T2 construct: The heterodimeric p66/p51 RT was eluted with an imidazole gradient; p66 and p51 derived from p66 by proteolytic cleavage of the C-terminal RNAse H domain; made in house; host or cells: E. coli (M15 for the His-tagged subunits)
The experiment can be described thus: biochemical. How it is done:
RNA-dependent-DNA RT-polymerase activity was measured in a standard reaction assay using poly(rA)-(dT)15 as template/primer as described in Restle et al. (1990). Ten microliters of reverse transcriptase (RT) at 20 nM was incubated at 37° C. for 30 min with 20 μL of reaction buffer (50 mM Tris, pH 8.0, 80 mM KCl, 6 mM MgCl2, 5 mM DTT, 0.15 μM poly(rA-dT), 15 μM dTTP, 0.3 μCi 3H-dTTP). For peptide evaluation, HIV-1 RT was incubated with increasing concentrations of peptide inhibitors for […], and polymerase reaction was initiated by adding reaction buffer. Reactions were stopped by precipitation of nucleic acids with 5 ml of 20% trichloroacetic acid (TCA) solution for 2 h on ice, then filtered using a multiwell-sample collector (Millipore), and washed with 5% TCA solution. Filters were dried at 55° C. for 30 min and radionucleotide incorporation was determined by liquid scintillation spectrometry.
A series of peptides have been derived from Pep-A sequence (SEQ ID NO: 28), which is derived from HIV-1 reverse transcriptase. First, P1 peptide (SEQ ID NO: 1) was obtained by removing the N-terminal arginine of Pep-A. Then, additional peptides were generated by performing an alanine scan on P1. P1-derived peptides were evaluated using a standard polymerase RT assay. Reported data correspond to the mean of three separate experiments.

In a further experiment the test system is HIV-1-LAI strain. As to the method:
The anti-HIV activities of the peptides were assayed according to the methods described in Roisin et al. (2004). Phytohemagglutinin-P(PHA-P)-activated peripheral blood mononuclear cells (PBMC) treated by increasing concentrations of peptide (from 100 to 0.1 nM), one hour later, were infected with hundred 50% tissue culture infectious doses (TCID50) per 100,000 cells of the HIV-1-LAI strain (Barre-Sinoussi et al., 1983). This virus was amplified in vitro on PHA-P-activated PBMC. Viral stock was titrated using PHA-P-activated PBMC, and 50% TCID50 were calculated using Kärber's formula (Kärber, 1931). Samples were maintained throughout the culture, and cell supernatants were collected at day 7 post-infection and stored at −20° C. Viral replication was measured by quantifying reverse transcriptase (RT) activity in cell culture supernatants. In parallel, cytotoxicity of the compounds was evaluated in uninfected PHA-P-activated PBMC by colorimetric 3-(4-5 dimethylthiazol-2-yl)2,5diphenyl tetrazolium bromite (MTT) assay on day 7 (as described in Mossmann, 1983). Experiments were performed in triplicate and repeated with another blood donor. Data analyses were performed using SofiMax® Pro 4.6 microcomputer software: percent of inhibition of RT activity or of cell viability were plotted vs concentration and fitted with quadratic curves; 50% effective doses (ED50) and cytotoxic doses (CD50) were calculated.
In order to avoid any limitation due to the poor ability of peptides to cross cellular membranes, they were associated to the peptide-based nanoparticle delivery system Pep-1 (SEQ ID NO: 29), at a 1/10 molar ratio.

Experiment [3] deals with T1, HIV-1 integrase. The experiment can be described thus: biochemical. In kind it is binding. How it is done: Fluorescein-labeled peptides (40 nM) were mixed with varying concentrations of integrase in 20 mM Tris pH 7.2, 50 mM NaCl, 10 mM MgCl2, and the r values were recorded.
Effect of the different peptides on the integrase (IN) activity, DNA binding and IN/DNA dissociation were evaluated as described in Example III.1 above, using fluorescence polarization and anisotropy measurements. Binding constant of the peptide for IN was determined by steady state fluorescence and anisotropy.

The next experiment deals with IN/LEDGF complex (Human immunodeficiency virus type 1 group M subtype B, UniProt P04585). In words: Dissociation of IN/LEDGF complex (AlphaScreen, immunoprecipitation). It is filed as biochemical. As to the method:
Dissociation of IN/LEDGF complex was measured by fluorescence resonance energy transfer (AlphaScreen® technology) and immunoprecipitation experiments: • Amplified Luminescent Proximity Homogeneous Assay (ALPHA): when the proteins (IN and LEDGF), linked to acceptor and donor beads, interact together (i.e., are into close proximity), a photosignal (a high amplified signal with output in the 520-560 nm range) is detected; when the proteins are not in close proximity, the reactive oxygen decays and there is no detectable signal generated; • immunoprecipitation (IP) was performed using polyclonal anti LEDGF antibodies (purchased from Santa Cruz Biotechnology, USA) and polyclonal HA antibodies (purchased from Eurogentec, Belgium). Cell line expression HA-tagged integrase was using for the experiment in the presence of increasing concentrations of peptide inhibitors.
(In Alpha technology, singlet oxygen from a donor bead excites a nearby acceptor bead.)

In experiment [4] the target is T3, IN/DNA complexes (Human immunodeficiency virus type 1 group M subtype B, UniProt P04585). In words: DNA-binding of integrase, fluorescence anisotropy. It is filed as biochemical, HIV-1. How it is done: as §2
In experiment [5] the target is T3, IN/DNA complexes. In words: Dissociation of pre-formed IN-DNA substrate complexes. In kind it is biochemical, HIV-1. How it is done: For dissociation experiments, IN-DNA substrate complexes were pre-formed at 25° C. before addition of peptides. The peptide-mediated dissociation of complexes was then studied at the same temperature by measuring the decrease in the r value as a function of time.

Where [6] appears, read: read-out: EC50 HIV-1 lai, Table 10.

`O=C1Nc2ccc(Cl)cc2[C@@](C#CC2CC2)(C(F)(F)F)O1` [Efavirenz, reference compound]: the “HIV propagation in vivo (in words)” value in the experiment with wild type HIV 1 virus is given as “block HIV propagation in vivo”. For the same molecule, the “reduction of viral propagation” value in experiment [1] was “no effect”.
Regarding `CC(C)C[C@@H]1NC(=O)[C@H](Cc2c[nH]c3ccccc23)NC(=O)[C@H](CCCCN)NC(=O)[C@H]([C@@H](C)O)NC(=O)CNC(=O)[C@@H](N)CSSC[C@@H](C(=O)O)NC(=O)[C@H](CC(C)C)NC(=O)[C@@H]2CCCN2C(=O)[C@H](Cc2c[nH]c3ccccc23)NC(=O)[C@H](C(C)C)NC(=O)[C@H](CCC(=O)O)NC(=O)[C@H]([C@@H](C)O)NC1=O` [Peptide P16C1] (H-CGTKWLTEVWPLC-OH; disulfide 1-13), the Ki is 4.3 µM at HIV-1 integrase [2] and 32.1 µM on HIV-1 RT. For the same molecule, the EC50 in the experiment with HIV-1-LAI strain (setting [6]) turned out to be 0.0025 µM. Besides, the Kd at HIV-1 integrase [3] came out at 0.09 µM.
`CC[C@H](C)[C@@H]1NC(=O)[C@H](Cc2c[nH]c3ccccc23)NC(=O)[C@H](CCC(=O)O)NC(=O)[C@H]([C@@H](C)O)NC(=O)[C@H](CC(C)C)NC(=O)[C@H](Cc2c[nH]c3ccccc23)NC(=O)[C@H](CCCCN)NC(=O)[C@H]([C@@H](C)O)NC(=O)CNC(=O)[C@@H](N)CSSC[C@@H](C(=O)O)NC(=O)[C@H](CCC(=O)O)NC(=O)[C@H](C)NC(=O)[C@H]([C@@H](C)O)NC(=O)[C@H](CC(C)C)NC(=O)[C@@H]2CCCN2C1=O` [Peptide P27C1] (H-CGTKWLTEWIPLTAEC-OH; disulfide 1-16): the Ki on HIV-1 integrase [2] was above 100 µM; on HIV-1 RT, 0.042 µM. Besides, in the experiment on HIV-1-LAI strain (setting [6]), the 50% effective concentration (EC50) worked out at 0.00017 µM. In addition, the Kd on HIV-1 integrase [3] was above 100 µM.
With GTKWLTEWIPL [Peptide P24], the EC50 at IN/LEDGF complex came out at 13 µM; at HIV-1 integrase [2] it was 33 µM; in the experiment on HIV-1-LAI strain (read-out: EC50, antiviral activity, peptide complexed with Pep-1), 0.0023 µM; at IN/DNA complexes [4], 35 µM; on IN/DNA complexes [5], 21 µM. At HIV-1 RT, this molecule displayed a Ki of 0.7 ± 0.05 µM. In addition, binding on HIV-1 integrase [3] was characterised by a dissociation constant (Kd) of 0.35 µM.
KWLTEWIPLTAEAE [Peptide P26]: the EC50 on IN/LEDGF complex was above 50 µM; on HIV-1 integrase [2], 28 µM; at IN/DNA complexes [4] it was 54 µM; on IN/DNA complexes [5], 67 µM. Further, the affinity at HIV-1 RT corresponds to a Ki of 1.8 ± 0.7 µM. Further, the “reduction of efficiency (higher Ki) relative to PAW” value on HIV-1 RT (relative to PAW) was 2.5 fold. In addition, binding on HIV-1 integrase [3] was characterised by a dissociation constant (Kd) of 0.32 µM.
